Experimental data taken from patent US10519111B2, “UV absorbing compounds, compositions comprising same and uses thereof” (CORAL SUNSCREEN PTY LTD, priority 2013, dated 2019).
Values joined by “and” are separate entries in the source; they are usually repeats but may differ in a detail not shown here. Equal entries are not always repeated.

Assay: UV absorption properties (λmax, molar extinction coefficient ε, efficiency E 1%, 1 cm)
Format: physicochemical
Conditions: for ε (molar extinction coefficient): values in order of the λmax values; for shift / increase in λmax: versus base enaminoketone or alkanoyl counterparts

| SMILES | UV λmax | ε (molar extinction coefficient) | also measured |
| --- | --- | --- | --- |
| CC(=O)CC1=CC(C)(C)CCN1CC(C)C |  |  | E (1%, 1 cm) (Table 12): 675; ε (Table 12): 16000 M⁻¹ cm⁻¹; λmax (Table 12, 2-substituted compounds): 314 nm |
| CC(C)CN1C=C(C(=O)CCC=Cc2ccc(COc3ccc(C(=O)CC(=O)c4ccc(C(C)(C)C)cc4)cc3)cc2)C(C)(C)CC1 (racemic) [Compound 10, 1-(4-(tert-butyl)phenyl)-3-(4-((4-(5-(1-isobutyl-4,4-dimethyl-1,4,5,6-tetrahydropyridin-3-yl)-5-oxopent-1-en-1-yl)benzyl)oxy)phenyl)propane-1,3-dione] | 314 nm and 357 nm | 23250 M⁻¹ cm⁻¹ and 24050 M⁻¹ cm⁻¹ |  |
| COc1ccc(C(=O)C(CCCCCC(=O)C2=CN(CC(C)C)CCC2(C)C)C(=O)c2ccc(C(C)(C)C)cc2)cc1 (centres unmarked) [Compound 5] | 306 nm |  |  |
| C=CCCC(=O)C1=CN(CC(C)C)CCC1(C)C [Compound 8, 1-(1-Isobutyl-4,4-dimethyl-1,4,5,6-tetrahydropyridin-3-yl)pent-4-en-1-one] | 308 nm | 35000 M⁻¹ cm⁻¹ |  |
| CC(C)(C)c1ccc(C(=O)CC(=O)c2ccc(OCc3ccc(Br)cc3)cc2)cc1 [Compound 9, 1-(4-((4-bromobenzyl)oxy)phenyl)-3-(4-(tert-butyl)phenyl)propane-1,3-dione] | 357 nm | 35500 M⁻¹ cm⁻¹ |  |
| CC(C)CN1C=C(C(=O)c2ccc(C(C)(C)C)cc2)C(C)(C)CC1 [Compound 11, (4-(tert-butyl)phenyl)(1-isobutyl-4,4-dimethyl-1,4,5,6-tetrahydropyridin-3-yl)methanone] | 317 nm | 19000 M⁻¹ cm⁻¹ | shift / increase in λmax: approximately 11 nm |
| COc1ccc(C(=O)C2=CN(CC(C)C)CCC2(C)C)cc1 [Compound 12, (1-isobutyl-4,4-dimethyl-1,4,5,6-tetrahydropyridin-3-yl) (4-methoxyphenyl)methanone] | 319 nm |  | shift / increase in λmax: approximately 11 nm |
| COc1ccc(C(=O)CC(=O)C2=CN(CC(C)C)CCC2(C)C)cc1 [Compound 13, 1-(1-isobutyl-4,4-dimethyl-1,4,5,6-tetrahydropyridin-3-yl)-3-(4-methoxyphenyl)propane-1,3-dione] | 293 nm and 396 nm | 14250 M⁻¹ cm⁻¹ and 11150 M⁻¹ cm⁻¹ |  |
| CC(C)CN1C=C(C(=O)c2ccc(N(C)C)cc2)C(C)(C)CC1 [Compound 15, (4-(dimethylamino)phenyl)(1-isobutyl-4,4-dimethyl-1,4,5,6-tetrahydropyridin-3-yl)methanone] | 336 nm | 17000 M⁻¹ cm⁻¹ |  |
| CC(C)CN1C=C(C(=O)c2ccc(Br)cc2)C(C)(C)CC1 [Compound 16, (4-bromophenyl)(1-isobutyl-4,4-dimethyl-1,4,5,6-tetrahydropyridin-3-yl)methanone] | 318 nm | 22500 M⁻¹ cm⁻¹ |  |
| CC(C)CN1C=C(C(=O)c2ccc3c(c2)CCO3)C(C)(C)CC1 [Compound 18, (2,3-dihydrobenzofuran-5-yl)(1-isobutyl-4,4-dimethyl-1,4,5,6-tetrahydropyridin-3-yl)methanone] | 320 nm | 22000 M⁻¹ cm⁻¹ |  |
| CC(C)CN1C=C(C(=O)c2ccc(-c3ccccc3)cc2)C(C)(C)CC1 [Compound 19, [1,1′-biphenyl]-4-yl(1-isobutyl-4,4-dimethyl-1,4,5,6-tetrahydropyridin-3-yl)methanone] | 320 nm | 18000 M⁻¹ cm⁻¹ |  |
| CC(C)CN1C=C(C(=O)c2ccccc2)C(C)(C)CC1 [Compound 20, (1-isobutyl-4,4-dimethyl-1,4,5,6-tetrahydropyridin-3-yl)(phenyl)methanone] | 316 nm | 19000 M⁻¹ cm⁻¹ |  |
| CC(C)CN1C=C(C(=O)c2ccc(C(=O)C3=CN(CC(C)C)CCC3(C)C)cc2)C(C)(C)CC1 [Compound 21, 1,4-phenylenebis ((1-isobutyl-4,4-dimethyl-1,4,5,6-tetrahydropyridin-3-yl)methanone)] | 320 nm | 20000 M⁻¹ cm⁻¹ |  |
| CC(C)CN1C=C(C(=O)c2cc(C(=O)C3=CN(CC(C)C)CCC3(C)C)cc(C(=O)C3=CN(CC(C)C)CCC3(C)C)c2)C(C)(C)CC1 [Compound 22, benzene-1,3,5-triyltris ((1-isobutyl-4,4-dimethyl-1,4,5,6-tetrahydropyridin-3-yl)methanone)] | 316 nm | 33000 M⁻¹ cm⁻¹ |  |
| CC(C)CN1C=C(C(=O)c2ccc(C(=O)c3ccccc3)cc2)C(C)(C)CC1 [Compound 23, (4-benzoylphenyl)(1-isobutyl-4,4-dimethyl-1,4,5,6-tetrahydropyridin-3-yl)methanone] | 295 nm | 7500 M⁻¹ cm⁻¹ |  |
| COc1ccc(C(=O)C2=CN(CC(C)C)CCC2(C)C)c(OC)c1 [Compound 24, 2,4-dimethoxyphenyl(1-isobutyl-4,4-dimethyl-1,4,5,6-tetrahydropyridin-3-yl)methanone] | 313 nm | 9500 M⁻¹ cm⁻¹ |  |
| CC(C)=CC(=O)C1=CN(CC(C)C)CCC1(C)C [Compound 26, 1-(1-isobutyl-4,4-dimethyl-1,4,5,6-tetrahydropyridin-3-yl)-3-methylbut-2-en-1-one] | 310 nm and 314 nm | 19000 M⁻¹ cm⁻¹ |  |

| SMILES | UV λmax | ε (molar extinction coefficient) | also measured |
| --- | --- | --- | --- |
| C=C(C)CC(=O)C1=CN(CC(C)C)CCC1(C)C [Compound 27, 1-(1-isobutyl-4,4-dimethyl-1,4,5,6-tetrahydropyridin-3-yl)-3-methylbut-3-en-1-one] | 306 nm | 14500 M⁻¹ cm⁻¹ |  |
| C=C/C=C/CC(=O)C1=CN(CC(C)C)CCC1(C)C [Compound 28, (E)-1-(1-isobutyl-4,4-dimethyl-1,4,5,6-tetrahydropyridin-3-yl)hexa-3,5-dien-1-one] | 311 nm |  |  |
| C=CCC(=O)C1=CN(CC(C)C)CCC1(C)C [Compound 29, 1-(1-isobutyl-4,4-dimethyl-1,4,5,6-tetrahydropyridin-3-yl)but-3-en-1-one] | 310 nm |  |  |
| CC(C)CN1C=C(C(=O)/C=C/c2ccccc2)C(C)(C)CC1 [Compound 31, (E)-1-(1-Isobutyl-4,4-dimethyl-1,4,5,6-tetrahydropyridin-3-yl)-3-phenylprop-2-en-1-one] | 360 nm | 16000 M⁻¹ cm⁻¹ |  |
| C=CC(=O)C1=CN(CC(C)C)CCC1(C)C [Compound 32, 1-(1-Isobutyl-4,4-dimethyl-1,4,5,6-tetrahydropyridin-3-yl)prop-2-en-1-one] | 331 nm | 20500 M⁻¹ cm⁻¹ |  |
| CC(C)CN1C=C(C(=O)/C=C/c2ccc(C(F)(F)F)cc2)C(C)(C)CC1 [Compound 33, (E)-1-(1-Isobutyl-4,4-dimethyl-1,4,5,6-tetrahydropyridin-3-yl)-3-(4-(trifluoromethyl)phenyl)prop-2-en-1-one] | 369 nm | 17000 M⁻¹ cm⁻¹ |  |
| COc1ccc(/C=C/C(=O)C2=CN(CC(C)C)CCC2(C)C)cc1 [Compound 34, (E)-1-(1-isobutyl-4,4-dimethyl-1,4,5,6-tetrahydropyridin-3-yl)-3-(4-methoxyphenyl)prop-2-en-1-one] | 364 nm | 16150 M⁻¹ cm⁻¹ |  |
| CC(C)CN1C=C(C(=O)/C=C/C=Cc2ccccc2)C(C)(C)CC1 [Compound 35, (2E, 4E/Z)-1-(1-isobutyl-4,4-dimethyl-1,4,5,6-tetrahydropyridin-3-yl)-5-phenylpenta-2,4-dien-1-one] | 318 nm and 370 nm | 14800 M⁻¹ cm⁻¹ and 13200 M⁻¹ cm⁻¹ |  |
| C=C(C)C(=O)C1=CN(CC(C)C)CCC1(C)C [Compound 36, 1-(1-Isobutyl-4,4-dimethyl-1,4,5,6-tetrahydropyridin-3-yl)methylprop-2-en-1-one] | 310 nm | 18950 M⁻¹ cm⁻¹ |  |
| C=C/C=C/C(=O)C1=CN(CC(C)C)CCC1(C)C [Compound 38, (2E/Z) 1-(1-isobutyl-4,4-dimethyl-1,4,5,6-tetrahydropyridin-3-yl)penta-2,4-dien-1-one] | 352 nm | 18000 M⁻¹ cm⁻¹ |  |
| CC(C)CN1C=C(C(=O)C(C#N)=C(c2ccccc2)c2ccccc2)C(C)(C)CC1 [Compound 39] | 297 nm and 317 nm | 15750 M⁻¹ cm⁻¹ and 16150 M⁻¹ cm⁻¹ |  |
| CC1(C)C=CN(c2ccccc2)CC1 [Compound 46, 4,4-dimethyl-1-phenyl-1,2,3,4-tetrahydropyridine] | 278 nm | 22550 M⁻¹ cm⁻¹ |  |
| CCC(=O)C1=CN(c2ccccc2)CCC1(C)C [Compound 47, 1-(4,4-dimethyl-1-phenyl-1,4,5,6-tetrahydropyridin-3-yl)propan-1-one] | 321 nm | 23000 M⁻¹ cm⁻¹ |  |
| C=CC(=O)C1=CN(c2ccccc2)CCC1(C)C [Compound 48, 1-(4,4-dimethyl-1-phenyl-1,4,5,6-tetrahydropyridin-3-yl)prop-2-en-1-one] | 346 nm | 21000 M⁻¹ cm⁻¹ |  |
| CC1(C)CCN(c2ccccc2)C=C1C(=O)c1ccc(Br)cc1 [Compound 49, (4-bromophenyl)(1-(phenyl)-4,4-dimethyl-1,4,5,6-tetrahydropyridin-3-yl)methanone] | 338 nm | 23300 M⁻¹ cm⁻¹ |  |
| CC1(C)C=CN(c2ccccc2)C=C1 [Compound 50, 4,4-dimethyl-1-phenyl-1,4-dihydropyridine] | 285 nm | 16000 M⁻¹ cm⁻¹ |  |
| COc1ccc(N2C=CC(C)(C)CC2)cc1 [Compound 51, 1-(4-methoxyphenyl)-4,4-dimethyl-1,2,3,4-tetrahydropyridine] | 278 nm | 22550 M⁻¹ cm⁻¹ |  |
| CCC(=O)C1=CN(c2ccc(OC)cc2)CCC1(C)C [Compound 52, 1-(1-(4-methoxyphenyl)-4,4-dimethyl-1,4,5,6-tetrahydropyridin-3-yl)propan-1-one] | 328 nm | 23500 M⁻¹ cm⁻¹ |  |
